Data reported in paper PMC10064330, “Reversible Dual-Covalent Molecular Locking of the 14-3-3/ERRγ Protein–Protein Interaction as a Molecular Glue Drug Discovery Approach” (Journal of the American Chemical Society, 2023).

Key:
[1] = biological target: T1, 14-3-3γ/SOS1 complex (Homo sapiens, UniProt P61981); assay: FA selectivity screen, SOS1 client peptide; format: binding; settings: 100 μM compound, SOS1 peptide (+1 Ala)
T1 construct: made in house; host or cells: E. coli NiCo21 (DE3)
T1 sequence (P61981 1-247): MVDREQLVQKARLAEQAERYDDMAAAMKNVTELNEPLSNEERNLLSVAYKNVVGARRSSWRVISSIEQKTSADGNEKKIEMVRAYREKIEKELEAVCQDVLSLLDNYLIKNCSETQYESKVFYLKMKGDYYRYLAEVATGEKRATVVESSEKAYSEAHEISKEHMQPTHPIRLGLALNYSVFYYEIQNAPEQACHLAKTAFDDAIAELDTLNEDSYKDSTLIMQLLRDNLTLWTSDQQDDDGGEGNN
Method: (§1) Drugging the hub protein 14-3-3 raises the challenge of selectivity, given that 14-3-3 binds several hundred phosphoprotein partners (Figure 4a).[54] We hypothesized that the interplay of chemical reactivity, the topology, and functionality of the composite binding pocket shaped by 14-3-3 and the interaction partner drives selective stabilization of the 14-3-3/ERRγ complex.[53] To validate selectivity, molecular locks 5 and 10 were tested against a panel of nine 14-3-3 client peptides in an FA assay, and the SF100 was determined for each 14-3-3 PPI (Figure 4b and Figures S18–S20). This client panel contained a diverse representation of 14-3-3 binding proteins, differing for example in size and hydrophobicity of the +1 amino acid. Importantly, clients PKR and RND3, each containing a +1 Cys, were included in the panel.
(§2) Figure S20. KD and SF100 plot – selectivity screen. […]
(§3) nine different client peptides in presence of DMSO (negative control) or 100 µM of compound 1, 5 or 10 (based on binding curves in Figure S19). […]
(§4) A pPROEX HTb expression vector encoding the human 14-3-3 protein gamma (14-3-3γ) with a N-terminal his6-tag was transformed by heat shock into NiCo21 (DE3) competent cells. […] Finally, the protein was concentrated to ∼60 mg/mL, analyzed Q-Tof LC/MS, and aliquots were flash-frozen for storage at −80 °C. […]

[2] = biological target: T2, 14-3-3γ/PIN1 complex (Homo sapiens, UniProt P61981); assay: FA selectivity screen, PIN1 client peptide; format: binding; settings: 100 μM compound, PIN1 peptide (+1 Trp)
T2 construct: made in house; host or cells: E. coli NiCo21 (DE3)
T2 sequence (P61981 1-247): T1 sequence (P61981 1-247)
Method: as §1, §2, §3, §4

`CN(C)CCSSCCN(C)C(=O)c1ccc(C=O)c(F)c1` [compound 5] was tested, and the “off-target effect in client screen” value [1] was “minor off-target effects” and the “off-target effect in client screen” value [2] was “minor off-target effects”.
